Assay results: patent US20220081412A1, “QUINOLINYL-PYRAZINE-CARBOXAMIDE COMPOUNDS AND USES THEREOF” (The Regents of the University of Michigan, priority 2018, published 2022)
Where two headings read alike, the source gives them in different places.

Tested on: MIA PaCa-2 cells
Experiment: Bru-seq analysis for nascent RNA synthesis (log2FC of genes, GSEA gene sets)
Format: cell-based, human
[1] = ACEVEDO_LIVER_CANCER_WITH_H3K27ME3_UP, C2, downregulated, 4 h
[2] = ACTWSNACTNY_UNKNOWN, TFBT, upregulated, 4 h
[3] = AP1_Q4_01, TFBT, upregulated, 4 h
[4] = BACH1_01, TFBT, upregulated, 4 h
[5] = BACH2_01, TFBT, upregulated, 4 h
[6] = BEGUM_TARGETS_OF_PAX3_FOXO1_FUSION_UP, C2, downregulated, 4 h
[7] = CCCNNNNNNAAGWT_UNKNOWN, TFBT, upregulated, 4 h
[8] = DACOSTA_UV_RESPONSE_VIA_ERCC3_COMMON_DN, C2, downregulated, 4 h
[9] = DACOSTA_UV_RESPONSE_VIA_ERCC3_XPCS_DN, C2, downregulated, 4 h
[10] = DAZARD_UV_RESPONSE_CLUSTER_G6, C2, downregulated, 4 h
[11] = DE_YY1_TARGETS_DN, C2, downregulated, 4 h
[12] = DOANE_BREAST_CANCER_CLASSES_DN, C2, downregulated, 4 h
[13] = EVI1_05, TFBT, upregulated, 4 h
[14] = GABRIELY_MIR21_TARGETS, C2, downregulated, 4 h
[15] = GATGKMRGCG_UNKNOWN, TFBT, upregulated, 4 h
[16] = GCCNNNWTAAR_UNKNOWN, TFBT, upregulated, 4 h
[17] = GGAANCGGAANY_UNKNOWN, TFBT, upregulated, 4 h
[18] = GGCNRNWCTTYS_UNKNOWN, TFBT, upregulated, 4 h
[19] = GGGYGTGNY_UNKNOWN, TFBT, upregulated, 4 h
[20] = GO_ALCOHOL_BIOSYNTHETIC_PROCESS, upregulated, 4 h
[21] = GO_ALCOHOL_METABOLIC_PROCESS, upregulated, 4 h
[22] = GO_CELLULAR_RESPONSE_TO_TOPOLOGICALLY_INCORRECT_PROTEIN, upregulated, 4 h
[23] = GO_CHROMATIN_ASSEMBLY_OR_DISASSEMBLY, upregulated, 4 h
[24] = GO_CHROMATIN_SILENCING_AT_RDNA, upregulated, 4 h
[25] = GO_CYTOSOLIC_LARGE_RIBOSOMAL_SUBUNIT, upregulated, 4 h
[26] = GO_CYTOSOLIC_RIBOSOME, upregulated, 4 h
[27] = GO_DNA_PACKAGING, upregulated, 4 h
[28] = GO_DNA_PACKAGING_COMPLEX, upregulated, 4 h
[29] = GO_HEXOSE_METABOLIC_PROCESS, upregulated, 4 h
[30] = GO_INTRINSIC_COMPONENT_OF_ENDOPLASMIC_RETICULUM_MEMBRANE, upregulated, 4 h
[31] = GO_IRE1_MEDIATED_UNFOLDED_PROTEIN_RESPONSE, upregulated, 4 h
[32] = GO_NEGATIVE_REGULATION_OF_RESPONSE_TO_OXIDATIVE_STRESS, upregulated, 4 h

Cc1cc(NC(=O)c2cnc(N3CCNCC3)cn2)c2ncccc2c1 [J28, N-(6-methylquinolin-8-yl)-5-(piperazin-1-yl)pyrazine-2-carboxamide]
ES: 0.474
KEGG gene sets SYSTEMIC_LUPUS_ERYTHEMATOSUS and LYSOSOME: upregulation
NES: 1.626
cholesterol biosynthesis pathway (curated gene sets): enrichment
expression of genes like INSIG1, DHCR7, MVK and FASN: Overexpression
synthesis of PCYT2, DOLK and HIST1H3B RNAs: upregulated in a dose-dependent manner
expression of ZNF816, IFT80, CACNG8 and GPR135 (4 h): significant decrease
Cell Cycle, Mitotic pathway (4 h of treatment): upregulated
log2FC (AC005614.2, downregulated noncoding gene, 4 h): −1.01
log2FC (AC005726.2, downregulated protein-coding gene, 4 h): −0.99
log2FC (AC006141.1, downregulated noncoding gene, 4 h): −1.18
log2FC (AC007038.2, downregulated noncoding gene, 4 h): −1.08
log2FC (AC007099.1, downregulated noncoding gene, 4 h): −1.04
log2FC (AC007390.2, downregulated noncoding gene, 4 h): −1.54
log2FC (AC007619.1, downregulated noncoding gene, 4 h): −1.30
log2FC (AC009690.1, downregulated protein-coding gene, 4 h): −0.83
log2FC (AC016949.1, downregulated noncoding gene, 4 h): −1.18
log2FC (AC022335.1, downregulated protein-coding gene, 4 h): −0.86
log2FC (AC022415.1, downregulated noncoding gene, 4 h): −1.20
log2FC (AC040934.1, downregulated noncoding gene, 4 h): −0.97
log2FC (AC046130.2, downregulated noncoding gene, 4 h): −1.16
log2FC (AC091152.2, downregulated noncoding gene, 4 h): −1.18
log2FC (AC135983.2, downregulated noncoding gene, 4 h): −1.16
log2FC (AC244131.2, downregulated noncoding gene, 4 h): −1.22
ES [1]: −0.444
NES [1]: −1.897
ES [2]: 0.432
NES [2]: 1.640
log2FC (ADNP-AS1, downregulated noncoding gene, 4 h): −1.07
log2FC (AKAP5, downregulated protein-coding gene, 4 h): −0.90
log2FC (AL596247.1, downregulated noncoding gene, 4 h): −2.37
ES [3]: 0.371
NES [3]: 1.550
log2FC (AP001992.1, downregulated noncoding gene, 4 h): −1.36
ES [4]: 0.419
NES [4]: 1.762
ES [5]: 0.390
NES [5]: 1.654
ES [6]: −0.621
NES [6]: −2.034
log2FC (CACNG8, downregulated protein-coding gene, 4 h): −1.10
ES [7]: 0.409
NES [7]: 1.550
log2FC (CCDC190, downregulated protein-coding gene, 4 h): −0.91
log2FC (CD274, downregulated protein-coding gene, 4 h): −0.90
log2FC (CHML, downregulated protein-coding gene, 4 h): −0.94
log2FC (CLEC2D, downregulated protein-coding gene, 4 h): −0.84
ES [8]: −0.448
NES [8]: −2.492
ES [9]: −0.520
NES [9]: −2.258
ES [10]: −0.434
NES [10]: −2.065
ES [11]: −0.471
NES [11]: −2.072
ES [12]: −0.562
NES [12]: −1.907
ES [13]: 0.421
NES [13]: 1.596
log2FC (FERMT1, downregulated protein-coding gene, 4 h): −0.88
log2FC (FP671120.1, downregulated noncoding gene, 4 h): −2.35
ES [14]: −0.470
NES [14]: −2.457
ES [15]: 0.462
NES [15]: 1.697
ES [16]: 0.442
NES [16]: 1.702
log2FC (GCLM, downregulated protein-coding gene, 4 h): −0.85
log2FC (GCNA, downregulated protein-coding gene, 4 h): −0.89
ES [17]: 0.421
NES [17]: 1.695
ES [18]: 0.424
NES [18]: 1.583
ES [19]: 0.361
NES [19]: 1.708
ES [20]: 0.573
NES [20]: 2.162
ES [21]: 0.457
NES [21]: 2.022
ES [22]: 0.504
NES [22]: 2.013
ES [23]: 0.470
NES [23]: 1.952
ES [24]: 0.713
NES [24]: 2.078
ES [25]: 0.536
NES [25]: 1.982
ES [26]: 0.516
NES [26]: 2.082
ES [27]: 0.468
NES [27]: 1.976
ES [28]: 0.727
NES [28]: 2.600
ES [29]: 0.500
NES [29]: 1.992
ES [30]: 0.508
NES [30]: 2.000
ES [31]: 0.556
NES [31]: 2.001
ES [32]: 0.743
NES [32]: 2.162
